In ChEMBL document CHEMBL1137154, “Phenylethanolamine N-methyltransferase inhibition: re-evaluation of kinetic data” (Bioorg Med Chem Lett, 2004) one finds Ki data, which are given here for one molecule.

This assay has as its target T1, Phenylethanolamine N-methyltransferase (Homo sapiens, UniProt P11086).
T1 sequence (P11086 whole entry): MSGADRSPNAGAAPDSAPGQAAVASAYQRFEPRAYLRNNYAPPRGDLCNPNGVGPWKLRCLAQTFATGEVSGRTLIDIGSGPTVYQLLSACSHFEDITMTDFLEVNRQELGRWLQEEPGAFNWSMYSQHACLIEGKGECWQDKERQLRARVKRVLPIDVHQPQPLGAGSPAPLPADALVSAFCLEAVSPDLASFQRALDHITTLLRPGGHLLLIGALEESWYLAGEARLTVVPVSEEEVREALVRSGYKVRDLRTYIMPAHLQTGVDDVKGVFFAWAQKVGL
Kind of assay: Inhibitory binding affinity for phenylethanolamine N-methyl-transferase (PNMT).

With `CC(N)c1cccc(Cl)c1Cl` (stereo unspecified), affinity was put at a Ki of 90 nM. This counts as double-digit nanomolar.
